# Measured values taken from article PMC5705205 (Bioorganic & medicinal chemistry letters, 2017).
# Molecular target: T1, aromatase (Homo sapiens, UniProt P11511)
# T1 sequence (P11511 1-503): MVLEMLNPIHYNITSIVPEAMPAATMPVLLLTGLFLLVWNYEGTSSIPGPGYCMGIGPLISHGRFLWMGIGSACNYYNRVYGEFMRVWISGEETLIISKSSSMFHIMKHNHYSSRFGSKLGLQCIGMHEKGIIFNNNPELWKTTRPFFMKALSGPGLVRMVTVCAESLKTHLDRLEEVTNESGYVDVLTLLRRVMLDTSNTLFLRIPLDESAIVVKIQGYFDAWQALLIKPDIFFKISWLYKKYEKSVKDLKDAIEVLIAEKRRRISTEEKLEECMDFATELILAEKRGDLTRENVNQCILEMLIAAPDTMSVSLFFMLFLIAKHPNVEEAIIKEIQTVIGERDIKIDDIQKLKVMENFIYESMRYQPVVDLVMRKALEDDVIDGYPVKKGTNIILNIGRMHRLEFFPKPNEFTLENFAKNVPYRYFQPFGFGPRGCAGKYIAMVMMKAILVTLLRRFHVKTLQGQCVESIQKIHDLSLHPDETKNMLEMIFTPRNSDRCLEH
# Assay: Aromatase inhibition assay
# Assay type: biochemical
# Conditions: not given
Compound,Anti-aromatase activity (in words),IC50 [nM]
O=[N+]([O-])c1ccc2[nH]c(-c3ccc(Cl)c(Cl)c3)cc2c1 [Compound 31],totally destroyed aromatase activity,–
COc1ccc2ccc(-c3cc4ccccc4[nH]3)cc2c1 [Compound 23],did not show encouraging activity,–
"c1ccc(-c2cc3ccccc3[nH]2)cc1 [Compound 1, 2-phenylindole]",only slight activity,–
"c1ccc(-c2nc3ccccc3[nH]2)cc1 [Compound 34, 2-phenylbenzimidazole, reference compound]",not active,–
"N#Cc1c(-c2ccccc2)[nH]c2ccccc12 [Compound 2d, 3-cyano-2-phenylindole]",–,1610 ± 200
c1ccc2[nH]c(-c3ccsc3)cc2c1 [Compound 22],did not show encouraging activity,–
Cn1c(-c2ccc(Cl)c(Cl)c2)cc2cc([N+](=O)[O-])ccc21 [Compound 31a],not active,–
"c1ccc(C2Cc3ccccc3N2)cc1 (stereo not shown) [Compound 1f, 2-phenylindoline]",did not show significant activity,–

# Same assay, conditions: read-out: Aromatase % inhibition
row,Compound,inhibition at 50 µM [%]
1,"N#Cc1c(-c2ccccc2)[nH]c2ccccc12 [Compound 2d, 3-cyano-2-phenylindole]",88 ± 1.07

# Same assay, conditions: relative to 24
row,Compound,Fold increase in aromatase activity over free NH derivative 24 [fold]
1,Cn1c(-c2ccccc2)cc2cc([N+](=O)[O-])ccc21 [Compound 24a],2

# Test system: quinone reductase 1 (QR1)
# Assay: QR1 induction assay
# Assay type: cell-based
# Conditions: not given
row,Compound,QR1 induction activity (in words)
1,COc1ccc2ccc(-c3cc4ccccc4[nH]3)cc2c1 [Compound 23],inactive
2,"c1ccc(-c2cc3ccccc3[nH]2)cc1 [Compound 1, 2-phenylindole]",very good QR1 induction activity
3,Fc1cc(F)cc(-c2cc3ccccc3[nH]2)c1 [Compound 15],inactive
4,CCCCCc1ccc(-c2cc3ccccc3[nH]2)cc1 [Compound 17],inactive
5,Clc1ccc(-c2cc3ccccc3[nH]2)cc1Cl [Compound 8],inactive
6,c1ccc2[nH]c(-c3ccsc3)cc2c1 [Compound 22],inactive
7,"c1ccc(C2Cc3ccccc3N2)cc1 (stereo not shown) [Compound 1f, 2-phenylindoline]",weak activity
8,c1cncc(-c2cc3ccccc3[nH]2)c1 [Compound 21],inactive
9,CN(C)c1ccc(-c2cc3ccccc3[nH]2)cc1 [Compound 20],inactive
10,Nc1ccc(-c2cc3ccccc3[nH]2)cc1 [Compound 18],inactive

# Same assay, conditions: read-out: QR1 CD (concentration that double the activity)
row,Compound,EC (2-fold activity) [µM]
1,"O=c1cc(-c2ccc(Br)cc2)oc2ccccc12 [4′-bromoflavone, reference compound]",0.01

# Same assay, conditions: read-out: QR1 IR (induction ratio), induction ratio at a concentration of 50 μM
row,Compound,fold induction at 50 µM
1,Cc1ccccc1-c1cc2cc([N+](=O)[O-])ccc2[nH]1 [Compound 25],< 1.5
2,"N#Cc1c(-c2ccccc2)[nH]c2ccccc12 [Compound 2d, 3-cyano-2-phenylindole]",0.55 ± 0.64
3,Clc1ccccc1-c1cc2ccccc2[nH]1 [Compound 9],< 1.5

# Same assay, conditions: relative to 1
row,Compound,Fold increase in QR1 induction activity over 1 [fold]
1,COc1cc(OC)cc(-c2cc3ccccc3[nH]2)c1 [Compound 7],2
